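Where inhibition never reached the appropriate level, the endpoint shown equals the highest concentration tested. Otherwise, values were interpolated linearly from a five-concentration, 48-hour dose response in 96-well plates. GI50 = concentration required for 50% inhibition of growth. TGI is the concentration that stops growth completely.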
Assays:
Experiment in all cases: NCI anticancer screen, dose series, 48 h
DU-145 prostate = system: DU-145 prostate
SK-MEL-28 melanoma = system: SK-MEL-28 melanoma
COLO 205 colon = system: COLO 205 colon
SNB-19 CNS = system: SNB-19 CNS
MDA-MB-231 breast = system: MDA-MB-231 breast
SK-MEL-5 melanoma = system: SK-MEL-5 melanoma
HOP-62 NSCLC = system: HOP-62 NSCLC
SR leukemia = system: SR leukemia
NCI-H23 lung = system: NCI-H23 lung
NCI-H460 lung = system: NCI-H460 lung
PC-3 prostate = system: PC-3 prostate
HT29 colon = system: HT29 colon
SK-MEL-2 melanoma = system: SK-MEL-2 melanoma
OVCAR-5 ovarian = system: OVCAR-5 ovarian
T-47D breast = system: T-47D breast
NCI/ADR-RES ovarian = system: NCI/ADR-RES ovarian
OVCAR-3 ovarian = system: OVCAR-3 ovarian
K-562 leukemia = system: K-562 leukemia
TK-10 renal = system: TK-10 renal
KM12 colon = system: KM12 colon
HCC-2998 colon = system: HCC-2998 colon
UACC-257 melanoma = system: UACC-257 melanoma
ACHN renal = system: ACHN renal
CAKI-1 renal = system: CAKI-1 renal
CCRF-CEM leukemia = system: CCRF-CEM leukemia
IGROV1 ovarian = system: IGROV1 ovarian
SF-268 CNS = system: SF-268 CNS
LOX IMVI melanoma = system: LOX IMVI melanoma
NCI-H226 lung = system: NCI-H226 lung
BT-549 breast = system: BT-549 breast
SK-OV-3 ovarian = system: SK-OV-3 ovarian
OVCAR-4 ovarian = system: OVCAR-4 ovarian
A549 NSCLC = system: A549 NSCLC
MCF7 breast = system: MCF7 breast
UACC-62 melanoma = system: UACC-62 melanoma
HL-60(TB) leukemia = system: HL-60(TB) leukemia
HCT-15 colon = system: HCT-15 colon
MALME-3M melanoma = system: MALME-3M melanoma
SNB-75 CNS = system: SNB-75 CNS
NCI-H522 lung = system: NCI-H522 lung
OVCAR-8 ovarian = system: OVCAR-8 ovarian
UO-31 renal = system: UO-31 renal
RPMI-8226 leukemia = system: RPMI-8226 leukemia
HS 578T breast = system: HS 578T breast
MDA-MB-435 = system: MDA-MB-435
RXF 393 renal = system: RXF 393 renal
HCT-116 colon = system: HCT-116 colon
786-0 renal = system: 786-0 renal
M14 melanoma = system: M14 melanoma
SW-620 colon = system: SW-620 colon
U251 CNS = system: U251 CNS
SF-539 CNS = system: SF-539 CNS
SF-295 CNS = system: SF-295 CNS
MOLT-4 leukemia = system: MOLT-4 leukemia
EKVX NSCLC = system: EKVX NSCLC
SN12C renal = system: SN12C renal
A498 renal = system: A498 renal
HOP-92 NSCLC = system: HOP-92 NSCLC

**Q.** For `NC(=O)c1c(NC(=O)c2ccc(C3CCCCC3)cc2)sc2c1CCC(=O)C2`, which GI50 (DU-145 prostate) is on record?
**A.** 1730 nM

**Q.** And the TGI (DU-145 prostate)?
**A.** > 100000 nM

**Q.** And the GI50 (SK-MEL-28 melanoma)?
**A.** 509 nM

**Q.** What about the TGI (SK-MEL-28 melanoma) of the same compound?
**A.** 2150 nM

**Q.** And the GI50 (COLO 205 colon)?
**A.** 208 nM

**Q.** And the TGI (COLO 205 colon)?
**A.** 650 nM

**Q.** And the GI50 (SNB-19 CNS)?
**A.** 426 nM

**Q.** What about the TGI (SNB-19 CNS) of the same compound?
**A.** 3010 nM

**Q.** What about the GI50 (MDA-MB-231 breast) of the same compound?
**A.** 384 nM

**Q.** What about the TGI (MDA-MB-231 breast) of the same compound?
**A.** 1750 nM

**Q.** And the GI50 (SK-MEL-5 melanoma)?
**A.** 630 nM

**Q.** What about the TGI (SK-MEL-5 melanoma) of the same compound?
**A.** 1770 nM

**Q.** What about the GI50 (HOP-62 NSCLC) of the same compound?
**A.** 1480 nM

**Q.** What about the TGI (HOP-62 NSCLC) of the same compound?
**A.** 24100 nM

**Q.** And the GI50 (SR leukemia)?
**A.** 108 nM

**Q.** And the GI50 (NCI-H23 lung)?
**A.** 314 nM

**Q.** What about the TGI (NCI-H23 lung) of the same compound?
**A.** 4340 nM

**Q.** What about the GI50 (NCI-H460 lung) of the same compound?
**A.** 645 nM

**Q.** And the TGI (NCI-H460 lung)?
**A.** 3640 nM

**Q.** And the GI50 (PC-3 prostate)?
**A.** 130 nM

**Q.** What about the TGI (PC-3 prostate) of the same compound?
**A.** 1590 nM

**Q.** And the GI50 (HT29 colon)?
**A.** 268 nM

**Q.** What about the TGI (HT29 colon) of the same compound?
**A.** 1810 nM

**Q.** What about the GI50 (SK-MEL-2 melanoma) of the same compound?
**A.** 980 nM

**Q.** And the TGI (SK-MEL-2 melanoma)?
**A.** 3530 nM

**Q.** And the GI50 (OVCAR-5 ovarian)?
**A.** 402 nM

**Q.** What about the TGI (OVCAR-5 ovarian) of the same compound?
**A.** 1980 nM

**Q.** What about the GI50 (T-47D breast) of the same compound?
**A.** 193 nM

**Q.** And the TGI (T-47D breast)?
**A.** 2340 nM

**Q.** And the GI50 (NCI/ADR-RES ovarian)?
**A.** 360 nM

**Q.** What about the TGI (NCI/ADR-RES ovarian) of the same compound?
**A.** 5040 nM

**Q.** And the GI50 (OVCAR-3 ovarian)?
**A.** 389 nM

**Q.** What about the TGI (OVCAR-3 ovarian) of the same compound?
**A.** 2620 nM

**Q.** What about the GI50 (K-562 leukemia) of the same compound?
**A.** 122 nM

**Q.** And the TGI (K-562 leukemia)?
**A.** > 100000 nM

**Q.** And the GI50 (TK-10 renal)?
**A.** 373 nM

**Q.** What about the TGI (TK-10 renal) of the same compound?
**A.** 2300 nM

**Q.** And the GI50 (KM12 colon)?
**A.** 349 nM

**Q.** And the TGI (KM12 colon)?
**A.** 5260 nM

**Q.** What about the GI50 (HCC-2998 colon) of the same compound?
**A.** 1100 nM

**Q.** And the TGI (HCC-2998 colon)?
**A.** 5410 nM

**Q.** What about the GI50 (UACC-257 melanoma) of the same compound?
**A.** 725 nM

**Q.** And the TGI (UACC-257 melanoma)?
**A.** 3230 nM

**Q.** And the GI50 (ACHN renal)?
**A.** 164 nM

**Q.** What about the TGI (ACHN renal) of the same compound?
**A.** 598 nM

**Q.** And the GI50 (CAKI-1 renal)?
**A.** 248 nM

**Q.** And the TGI (CAKI-1 renal)?
**A.** 1470 nM

**Q.** And the GI50 (CCRF-CEM leukemia)?
**A.** 142 nM

**Q.** And the GI50 (IGROV1 ovarian)?
**A.** 434 nM

**Q.** What about the TGI (IGROV1 ovarian) of the same compound?
**A.** 2030 nM

**Q.** And the GI50 (SF-268 CNS)?
**A.** 532 nM

**Q.** And the TGI (SF-268 CNS)?
**A.** 3460 nM

**Q.** And the GI50 (LOX IMVI melanoma)?
**A.** 186 nM

**Q.** What about the TGI (LOX IMVI melanoma) of the same compound?
**A.** 1010 nM

**Q.** And the GI50 (NCI-H226 lung)?
**A.** 705 nM

**Q.** What about the TGI (NCI-H226 lung) of the same compound?
**A.** 2610 nM

**Q.** And the GI50 (BT-549 breast)?
**A.** 283 nM

**Q.** What about the TGI (BT-549 breast) of the same compound?
**A.** 1390 nM

**Q.** And the GI50 (SK-OV-3 ovarian)?
**A.** 1180 nM

**Q.** What about the TGI (SK-OV-3 ovarian) of the same compound?
**A.** 5890 nM

**Q.** What about the GI50 (OVCAR-4 ovarian) of the same compound?
**A.** 377 nM

**Q.** And the TGI (OVCAR-4 ovarian)?
**A.** 1710 nM

**Q.** What about the GI50 (A549 NSCLC) of the same compound?
**A.** 419 nM

**Q.** What about the TGI (A549 NSCLC) of the same compound?
**A.** 6080 nM

**Q.** What about the GI50 (MCF7 breast) of the same compound?
**A.** 292 nM

**Q.** And the TGI (MCF7 breast)?
**A.** 2530 nM

**Q.** What about the GI50 (UACC-62 melanoma) of the same compound?
**A.** 276 nM

**Q.** What about the TGI (UACC-62 melanoma) of the same compound?
**A.** 1430 nM

**Q.** What about the GI50 (HL-60(TB) leukemia) of the same compound?
**A.** 307 nM

**Q.** What about the TGI (HL-60(TB) leukemia) of the same compound?
**A.** > 30800 nM

**Q.** And the GI50 (HCT-15 colon)?
**A.** 155 nM

**Q.** What about the TGI (HCT-15 colon) of the same compound?
**A.** 1260 nM

**Q.** And the GI50 (MALME-3M melanoma)?
**A.** 314 nM

**Q.** And the TGI (MALME-3M melanoma)?
**A.** 1190 nM

**Q.** And the GI50 (SNB-75 CNS)?
**A.** 1390 nM

**Q.** What about the TGI (SNB-75 CNS) of the same compound?
**A.** 3420 nM

**Q.** And the GI50 (NCI-H522 lung)?
**A.** 227 nM

**Q.** And the TGI (NCI-H522 lung)?
**A.** 1450 nM

**Q.** What about the GI50 (OVCAR-8 ovarian) of the same compound?
**A.** 380 nM

**Q.** What about the TGI (OVCAR-8 ovarian) of the same compound?
**A.** > 20200 nM

**Q.** What about the GI50 (UO-31 renal) of the same compound?
**A.** 177 nM

**Q.** And the TGI (UO-31 renal)?
**A.** 690 nM

**Q.** What about the GI50 (RPMI-8226 leukemia) of the same compound?
**A.** 135 nM

**Q.** What about the TGI (RPMI-8226 leukemia) of the same compound?
**A.** 596 nM

**Q.** What about the GI50 (HS 578T breast) of the same compound?
**A.** 383 nM

**Q.** What about the TGI (HS 578T breast) of the same compound?
**A.** 5710 nM

**Q.** And the GI50 (MDA-MB-435)?
**A.** 611 nM

**Q.** What about the TGI (MDA-MB-435) of the same compound?
**A.** 2170 nM

**Q.** And the GI50 (RXF 393 renal)?
**A.** 301 nM

**Q.** What about the TGI (RXF 393 renal) of the same compound?
**A.** 1190 nM

**Q.** What about the GI50 (HCT-116 colon) of the same compound?
**A.** 108 nM

**Q.** And the TGI (HCT-116 colon)?
**A.** 1300 nM

**Q.** And the GI50 (786-0 renal)?
**A.** 663 nM

**Q.** And the TGI (786-0 renal)?
**A.** 2870 nM

**Q.** And the GI50 (M14 melanoma)?
**A.** 371 nM

**Q.** And the TGI (M14 melanoma)?
**A.** 1870 nM

**Q.** What about the GI50 (SW-620 colon) of the same compound?
**A.** 142 nM

**Q.** What about the TGI (SW-620 colon) of the same compound?
**A.** 1660 nM

**Q.** And the GI50 (U251 CNS)?
**A.** 246 nM

**Q.** And the TGI (U251 CNS)?
**A.** 1620 nM

**Q.** And the GI50 (SF-539 CNS)?
**A.** 211 nM

**Q.** And the TGI (SF-539 CNS)?
**A.** 826 nM

**Q.** What about the GI50 (SF-295 CNS) of the same compound?
**A.** 681 nM

**Q.** What about the TGI (SF-295 CNS) of the same compound?
**A.** 2500 nM

**Q.** And the GI50 (MOLT-4 leukemia)?
**A.** 357 nM

**Q.** And the TGI (MOLT-4 leukemia)?
**A.** > 22400 nM

**Q.** What about the GI50 (EKVX NSCLC) of the same compound?
**A.** 502 nM

**Q.** What about the TGI (EKVX NSCLC) of the same compound?
**A.** 3210 nM

**Q.** What about the GI50 (SN12C renal) of the same compound?
**A.** 438 nM

**Q.** And the TGI (SN12C renal)?
**A.** 2830 nM

**Q.** And the GI50 (A498 renal)?
**A.** 1990 nM

**Q.** What about the TGI (A498 renal) of the same compound?
**A.** 5840 nM

**Q.** And the GI50 (HOP-92 NSCLC)?
**A.** 246 nM

**Q.** What about the TGI (HOP-92 NSCLC) of the same compound?
**A.** 1040 nM
